From DBAASP
Converted amounts (≈) assume the structure as drawn. Blank lines part the entries; values can stand above or below the compound they belong to.

How the values were obtained:
Assay in all cases: ≥ marks a high value that may be exact or a test limit, other limits are often not marked, values filed in µg/mL are converted to µM
[1] = test system: Staphylococcus aureus 68 HER 1049
[2] = test system: Escherichia coli K12 MG1655
[3] = test system: Bacillus subtilis A47
[4] = test system: Escherichia coli 44102
[5] = test system: Staphylococcus aureus 22401
[6] = test system: Pseudomonas aeruginosa A62
[7] = test system: Escherichia coli ATCC 25922
[8] = test system: Pseudomonas aeruginosa DM23155
[9] = test system: Klebsiella pneumoniae DM4299
[10] = test system: Candida albicans ATCC 2002
[11] = test system: Pseudomonas aeruginosa CMCCB 10104
[12] = test system: Shigella dysenteriae
[13] = test system: Klebsiella pneumoniae
[14] = test system: Staphylococcus aureus ATCC 2592
[15] = test system: Bacillus megaterium
[16] = test system: Salmonella enterica subsp. enterica serovar Typhimurium ATCC 14028
[17] = test system: Escherichia coli MTCC 0723
[18] = test system: Staphylococcus aureus NCDC 0111
[19] = test system: Acinetobacter johnsonii NCDC 0072
[20] = test system: Pseudomonas aeruginosa ATCC 27853
[21] = test system: Staphylococcus aureus ATCC 29213
[22] = test system: Listeria monocytogenes ATCC 19111
[23] = test system: Pseudomonas aeruginosa NCDC 0105
[24] = test system: Bacillus cereus NCDC 0240
[25] = test system: Porphyromonas gingivalis ATCC 53978
[26] = test system: Porphyromonas gingivalis ATCC 33277
[27] = test system: Nocardia asteroides 201118
[28] = test system: Enterococcus faecium 091299
[29] = test system: Candida glabrata 090902
[30] = test system: Psychrobacter faecalis X29
[31] = test system: Pseudomonas aeruginosa CGMCC 1.50
[32] = test system: Klebsiella pneumoniae 08040724
[33] = test system: Enterococcus faecalis 981
[34] = test system: Enterobacter cloacae CGMCC 1.57

SMILES: CC[C@H](C)[C@H](N)C(=O)N[C@@H](CC(C)C)C(=O)N1CCC[C@H]1C(=O)N[C@H](C(=O)N[C@H](C(=O)NCC(=O)N[C@@H](CCCCN)C(=O)N[C@H](C(=O)N[C@@H](CC(C)C)C(=O)N[C@@H](CO)C(=O)N[C@H](C(=O)N[C@H](C(=O)N[C@@H](Cc1ccccc1)C(=O)NCC(=O)N[C@@H](CCCCN)C(=O)O)[C@@H](C)CC)[C@@H](C)O)[C@@H](C)CC)[C@@H](C)CC)[C@@H](C)CC [ILPIIGKILSTIFGK]
MIC [3]: 25 µM (≈ 40.3 µg/mL) | MIC [4]: ≥ 50 µM | MIC [5]: 6.25 µM (≈ 10.1 µg/mL) | MIC [6]: 12.5 µM (≈ 20.2 µg/mL)

SMILES: CC[C@H](C)[C@H](NC(=O)CN)C(=O)NCC(=O)N[C@H](C(=O)N[C@@H](CCCCN)C(=O)N[C@H](C(=O)N[C@@H](CC(C)C)C(=O)NCC(=O)NCC(=O)N[C@H](C(=O)N[C@@H](CCCCN)C(=O)N[C@H](C(=O)N[C@@H](C)C(=O)N[C@@H](CC(C)C)C(=O)N[C@@H](CCCCN)C(=O)NCC(=O)N[C@@H](C)C(=O)N[C@@H](CC(C)C)C(=O)N[C@@H](CCCCN)C(=O)N[C@@H](CCC(=O)O)C(=O)N[C@@H](CC(C)C)C(=O)N[C@@H](C)C(=O)N[C@@H](CO)C(=O)N[C@H](C(=O)N[C@@H](Cc1ccc(O)cc1)C(=O)N[C@H](C(=O)N[C@@H](CC(N)=O)C(N)=O)C(C)C)[C@@H](C)O)[C@@H](C)O)C(C)C)[C@@H](C)CC)[C@@H](C)O [GIGTKILGGVKTALKGALKELASTYVN]
MIC [7]: 7.21 µM (≈ 19.5 µg/mL) | MIC [10]: 1.11 µM (≈ 3 µg/mL) | MIC [11]: 7.21 µM (≈ 19.5 µg/mL) | MIC [12]: 0.999 µM (≈ 2.7 µg/mL) | MIC [13]: 3.33 µM (≈ 9 µg/mL) | MIC [14]: 7.21 µM (≈ 19.5 µg/mL) | MIC [15]: 7.21 µM (≈ 19.5 µg/mL)

SMILES: CC[C@H](C)[C@H](NC(=O)[C@H](CO)NC(=O)[C@H](Cc1c[nH]c2ccccc12)NC(=O)[C@@H]1CCCN1C(=O)[C@@H](NC(=O)[C@H](C)N)[C@@H](C)CC)C(=O)N[C@@H](Cc1c[nH]c2ccccc12)C(=O)N[C@@H](Cc1c[nH]c2ccccc12)C(=O)N[C@@H](CCCN=C(N)N)C(=O)N[C@@H](CC(C)C)C(=O)N[C@@H](CC(C)C)C(=O)N[C@@H](Cc1ccccc1)C(=O)N[C@@H](CCCCN)C(=O)NCC(=O)O [AIPWSIWWRLLFKG]
MIC [16]: 0.2 µM (≈ 0.355 µg/mL) | MIC [17]: ≥ 200 µM | MIC [18]: 6 µM (≈ 10.6 µg/mL) | MIC [19]: ≥ 200 µM | MIC [20]: 100 µM (≈ 177 µg/mL) | MIC [21]: 6 µM (≈ 10.6 µg/mL) | MIC [22]: 3 µM (≈ 5.32 µg/mL) | MIC [23]: ≥ 50 µM | MIC [24]: ≥ 100 µM

SMILES: CC[C@H](C)[C@H](NC(=O)CN)C(=O)N[C@@H](CC(C)C)C(=O)N[C@@H](CC(=O)O)C(=O)N[C@H](C(=O)N[C@@H](CC(C)C)C(=O)N[C@@H](CCCCN)C(=O)N[C@@H](CCC(N)=O)C(=O)N[C@@H](CC(C)C)C(=O)NCC(=O)N[C@@H](CCCCN)C(=O)N[C@@H](C)C(=O)N[C@@H](C)C(=O)N[C@@H](C)C(=O)N[C@@H](CCC(N)=O)C(=O)N[C@@H](CO)C(=O)N[C@@H](CC(C)C)C(=O)N[C@@H](CC(C)C)C(=O)N[C@@H](CO)C(=O)N[C@@H](CCCCN)C(=O)N[C@@H](C)C(=O)N[C@@H](C)C(=O)N[C@H]1CSSC[C@@H](C(=O)O)NC(=O)[C@H]([C@@H](C)O)NC(=O)[C@H](CCCCN)NC(=O)[C@H](C)NC(=O)[C@H](CC(C)C)NC(=O)[C@H](CCCCN)NC1=O)[C@@H](C)O [GILDTLKQLGKAAAQSLLSKAACKLAKTC]
MIC [27]: 6.3 µM (≈ 18.5 µg/mL) | MIC [28]: 6.3 µM (≈ 18.5 µg/mL) | MIC [7]: 50 µM (≈ 147 µg/mL) | MIC [29]: ≥ 50 µM | MIC [30]: 3.1 µM (≈ 9.13 µg/mL) | MIC [31]: ≥ 50 µM | MIC [32]: ≥ 100 µM | MIC [33]: ≥ 50 µM | MIC [34]: ≥ 50 µM

Results, then the compound that gave them:

MIC [1]: 1.85 µM (≈ 4 µg/mL) | MIC [2]: 1.85 µM (≈ 4 µg/mL)
SMILES: CC[C@H](C)[C@H](NC(=O)[C@H](CCCN=C(N)N)NC(=O)[C@H](CCCN=C(N)N)NC(=O)[C@H](CC(C)C)NC(=O)[C@H](CCCCN)NC(=O)[C@H](CCCCN)NC(=O)[C@H](Cc1c[nH]c2ccccc12)NC(=O)[C@H](CCCN=C(N)N)NC(=O)[C@H](CCCCN)NC(=O)[C@H](Cc1c[nH]c2ccccc12)NC(=O)[C@@H](N)Cc1c[nH]c2ccccc12)C(=O)N[C@@H](Cc1ccccc1)C(=O)N[C@@H](CC(C)C)C(=O)N[C@@H](CCSC)C(=O)N[C@@H](CC(C)C)C(=O)O [WWKRWKKLRRIFLML]

MIC [7]: 1.5 µM (≈ 1.86 µg/mL) | MIC [8]: 6 µM (≈ 7.44 µg/mL) | MIC [9]: 3 µM (≈ 3.72 µg/mL)
SMILES: CC(=O)N[C@@H](CCCN=C(N)N)C(=O)NCC(=O)N[C@@H](CCCN=C(N)N)C(=O)N[C@@H](CCCCN)C(=O)NCC(=O)NCC(=O)N[C@@H](CCCN=C(N)N)C(=O)N[C@@H](CCCN=C(N)N)C(=O)N[C@@H](CCCCN)C(=O)N[C@@H](CCCCN)C(=O)O [RGRKGGRRKK]

MIC [25]: 1.7 µM (≈ 4.78 µg/mL) | MIC [26]: 1.7 µM (≈ 4.78 µg/mL)
SMILES: CC[C@H](C)[C@H](NC(=O)CNC(=O)[C@H](CCC(=O)O)NC(=O)CNC(=O)[C@H](C)NC(=O)CNC(=O)[C@H](Cc1cnc[nH]1)NC(=O)[C@@H]1CCCN1C(=O)[C@@H](N)CCCN=C(N)N)C(=O)N[C@@H](CC(=O)O)C(=O)N[C@@H](CCCN=C(N)N)C(=O)N[C@H](C(=O)N1CCC[C@H]1C(=O)N[C@@H](C)C(=O)NCC(=O)N1CCC[C@H]1C(=O)N[C@@H](CO)C(=O)N1CCC[C@H]1C(=O)N[C@@H](CO)C(=O)N[C@@H](CCC(=O)O)C(=O)N[C@H](C(=O)NCC(=O)N[C@@H](CC(C)C)C(=O)N[C@@H](C)C(=O)N[C@H](C(=O)N1CCC[C@H]1C(=O)N[C@@H](CO)C(=O)NCC(=O)N[C@@H](CCCCN)C(=O)O)[C@@H](C)CC)C(C)C)C(C)C [RPHGAGEGIDRVPAGPSPSEVGLAIPSGK]
